Columns and labels:
[1] = tested on: opioid analgesia in postsurgical patients; conditions: cited from earlier work; for Effect on analgesic potency of morphine: low-dose cotreatment with morphine, postsurgical patients, 24-hour test periods
[2] = tested on: constipation-predominant IBS patients; conditions: eight patients, 16 mg three times a week, eight weeks; cited from earlier work
patients with IBS = assay: Open clinical study of low dose naltrexone in patients with IBS (daily symptom diary, global self-assessment); assay type: in vivo, human
Procedure: An open study of low dose naltrexone administration in four (4) patients with IBS was initiated. The patients were evaluated for IBS, based on the Rome criteria. All patients were screened for other disorders or medications that could cause gastrointestinal symptoms of IBS. These included inflammatory bowel disease, cancer, lactose intolerance, and neurological disorders, as well as the use of narcotic medications. […] Each subject was fully informed of the benefits and possible side effects of the study and thereafter freely gave their consent to participate in the study.
Each patient maintained a daily diary of the symptoms prior to and during treatment with 1-3 mg/day of naltrexone. Each participant noted the following symptoms:
Patients were permitted to remain on medications other than anticholinergics and anti-diarrheal agents (i.e., fiber bulking agents or lactose enzyme replacement if needed).
Naltrexone (tradename Revia; 50 mg tablets; DuPont Merck) was purchased at a pharmacy. Single tablets were crushed and dissolved in 50 ml boiled distilled water, and stored unfrozen in a refrigerator. Each patient received 2 ml (2 mg) orally each morning with breakfast. Medication was prepared weekly and used for seven doses, with the remainder being discarded.

IBS patients = conditions: 30 mg, three times daily; cited from earlier work
[3] = Patient A, after 24 months, 2.5-3.0 mg/day
[4] = Patient B, after 12 months, 1.5-2.3 mg/day
[5] = Patient D, after 9 months, 2.5-3.0 mg/day

Molecule: C=CCN1CC[C@]23c4c5ccc(O)c4O[C@H]2C(=O)CC[C@@]3(O)[C@H]1C5 [naloxone]
- Effect on analgesic potency of morphine [1]: markedly enhanced the analgesic potency of morphine

Molecule: C=C1CCC2(O)C3Cc4ccc(OC5OC(C(=O)O)C(O)C(O)C5O)c5c4C2(CCN3CC2CC2)C1O5 (stereo not shown) [nalmefene glucuronide, Nalmefene glucuronide]
- Abdominal pain or bloating [2]: did not reduce abdominal pain or bloating
- Stool consistency [2]: not improved
- Stool frequency [2]: increased stool frequency
- Transit time [2]: decreased transit time

Molecule: C=C1CC[C@@]2(O)[C@H]3Cc4ccc(O)c5c4[C@@]2(CCN3CC2CC2)[C@H]1O5 [nalmefene]
- Effect on morphine's analgesic potency ([1]; ca. 15 μg, IV): markedly enhance morphine's analgesic potency
- Effect on opioid analgesia ([1]; doses of >0.5 mg): markedly attenuate opioid analgesia
- Effect on analgesic potency of morphine [1]: markedly enhanced the analgesic potency of morphine

Molecule: O=C1CC[C@@]2(O)[C@H]3Cc4ccc(O)c5c4[C@@]2(CCN3CC2CC2)[C@H]1O5 [naltrexone]
- Abdominal cramping (patients with IBS; [3]): completely ceased
- Frequency of bowel actions (patients with IBS; [3]): returned to normal levels
- Cramping abdominal pain (patients with IBS; Patient A, after nine months of treatment): no cramping abdominal pain
- Stool frequency (patients with IBS; Patient A, after nine months of treatment, oral daily, before treatment about 4-8 times per day): 1-2 formed bowel movements per day
- Global improvement on the 0-4 scale (patients with IBS; Patient A, 0 = no observable change, 4 = marked and substantially improved): 4
- Global improvement on the 0-4 scale (patients with IBS; Patient B): 3
- Frequency of bowel actions (patients with IBS; [4]): no change
- Reduction in abdominal cramping (patients with IBS; [4]): 50%
- Abdominal pain associated with cramping (patients with IBS; Patient B, after 75 days of treatment): total elimination of abdominal pain associated with cramping
- Stool frequency (patients with IBS; Patient B, after 75 days of treatment, before treatment 10-12 diarrheal movements per day): 2-4 bowel movements per day
- Global improvement on the 0-4 scale (patients with IBS; Patient C): 2.5
- IBS symptoms (patients with IBS; Patient C, 24 month follow-up, diagnosed with fibromyalgia, 1-2 mg/day, stopped after 6 months): did not respond
- Abdominal pain associated with cramping (patients with IBS; Patient C, after 75 days of 2 mg/day): eliminated
- Frequency of loose bowel movements (patients with IBS; Patient C, after 75 days of 2 mg/day, before treatment 2-3 loose bowel movements daily): halved in frequency
- Global improvement on the 0-4 scale (patients with IBS; Patient D): 2.5
- Decrease in cramping (patients with IBS; [5]): 75%
- Reduction in frequency of bowel actions (patients with IBS; [5]): 20%
- IBS symptoms after treatment was halted (patients with IBS; Patient D, low-dose treatment halted after 9 months): IBS symptoms returned
- Abdominal cramping symptoms (patients with IBS; Patient D, upon initiation of low dose treatment, continued over 70 days): immediate relief of abdominal cramping symptoms
- Reduction in stool frequency (patients with IBS; Patient D, upon initiation, continued over 70 day treatment period, before treatment 7-10 unformed diarrheal movements per day): 50%
- IBS symptoms on every other day dosing schedule (patients with IBS; Patients A and C, dosing changed to every other day): IBS symptoms returned
- Side effects (patients with IBS; four patients, 2 mg orally each morning): None of the four patients reported discernible side effects

Molecule: fedotizine
- Treatment of IBS (IBS patients): successful treatment
